Read-outs that look alike come from different tables or passages of the source.
Legend:
[1] = Acute pain tail-flick assay, side-by-side mice studies; assay type: in vivo; conditions: side-by-side comparison, similar to opioids
CB1 receptors = CB1 receptors (Homo sapiens, UniProt P21554); conditions: mediated through CB1 receptors; cited from earlier work
[2] = assay type: in vivo, human
Text: Tachycardia was the most common adverse event (AE) in this study, reported in 5 of 48 subjects (10%) following active treatment and in no subjects following placebo; all of the treatment-emergent AEs (TEAEs) of tachycardia were deemed related to study treatment.
The Toxicity Grading Scale for Healthy Adult and Adolescent Volunteers Enrolled in Preventative Vaccine Clinical Trials criteria for tachycardia are defined as follows: […]
Severe (Grade 3): >130 bpm
In this study, tachycardia was dose limiting at a level >130 bpm.

[3] = Nonclinical studies of analgesia compared with morphine; assay type: in vivo
[4] = Preclinical animal models of pain; assay type: in vivo; conditions: acute pain, visceral pain, fibromyalgia, diabetic peripheral neuropathy, sciatica, chemotherapy induced pain, osteoarthritis models
Text: (§1) Nevertheless, CMX-020 may produce adverse side effects when given at improper dosages. Methods of administrating an effective amount of the compound CMX-020 to produce an analgesia effective, while still being within a safe and tolerable dose, is both necessary and desirable.

[5] = assay type: in vivo, humans
Text: as §1

[6] = Subject 0048, 0.24 mg/kg 15-minute infusion
[7] = Subject 0057, 0.32 mg/kg 30-minute infusion
[8] = following active treatment, all dose levels

Chain of CB1 receptors (P21554 whole entry): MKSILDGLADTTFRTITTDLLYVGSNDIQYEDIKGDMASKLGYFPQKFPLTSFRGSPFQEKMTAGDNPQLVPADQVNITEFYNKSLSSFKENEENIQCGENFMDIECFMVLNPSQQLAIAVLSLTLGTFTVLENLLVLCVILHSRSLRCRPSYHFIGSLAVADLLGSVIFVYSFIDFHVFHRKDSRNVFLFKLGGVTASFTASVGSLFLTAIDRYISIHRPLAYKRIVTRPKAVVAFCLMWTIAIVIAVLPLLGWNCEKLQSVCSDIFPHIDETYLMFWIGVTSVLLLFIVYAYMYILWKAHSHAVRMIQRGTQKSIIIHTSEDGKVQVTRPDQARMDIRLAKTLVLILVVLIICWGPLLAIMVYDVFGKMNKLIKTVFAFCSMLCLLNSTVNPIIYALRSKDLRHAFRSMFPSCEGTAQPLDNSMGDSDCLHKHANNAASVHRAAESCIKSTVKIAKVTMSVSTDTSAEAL

## CCCCC/C=C\C/C=C\C/C=C\C/C=C\CCCC(=O)Nc1ccc(O)cc1 [AM404, reference compound]
[1]
  Analgesic efficacy in the acute pain tail-flick assay: highest level of analgesic efficacy
CB1 receptors
  Anticonvulsant action: anticonvulsant action mediated through CB1 receptors

## CCCCCC(=O)N(CCC=C=CCCCC=C=CCC=C=CCCCC(=O)NC1CC1)C(C)C [CMX-020]
[2]; 0.32 mg/kg and 0.24 mg/kg 15-minute infusion groups compared with the other dose levels and placebo
  Number of elevated heart rate assessed as clinically significant: higher number
[2]; 0.32 mg/kg and 0.24 mg/kg 15 minutes infusion and 0.32 mg/kg 30 minute infusion
  Doses at which tachycardia was reported: only at the three highest doses
[2]; Subject 0033, 0.32 mg/kg 15-minute infusion
  Time of peak heart rate following the start of treatment administration: 16 min
[2]; Subject 0033, 0.32 mg/kg 15-minute infusion, 15 minutes following the peak heart rate
  Heart rate after decrease: 113 bpm
[2]; Subject 0033, Cohort 5, 0.32 mg/kg 15-minute infusion
  Peak Pulse: 138 bpm
[2]; Subject 0036, 0.32 mg/kg 15-minute infusion
  Time of peak heart rate following the start of dose administration: 16 min
[2]; Subject 0036, 0.32 mg/kg 15-minute infusion, 15 minutes following the start of treatment administration (so in the source)
  Heart rate after decrease: 101 bpm
[2]; Subject 0036, Cohort 5, 0.32 mg/kg 15-minute infusion
  Peak Pulse: 110 bpm
[2]; Subject 0045, 0.24 mg/kg 15-minute infusion
  Time of elevated heart rate following the start of dose administration: 11 min
[2]; Subject 0045, 0.24 mg/kg 15-minute infusion, 10 minutes following the start of treatment administration (so in the source)
  Heart rate after decrease: 109 bpm
[2]; Subject 0045, Cohort 6, 0.24 mg/kg 15-minute infusion (discontinued, total dose received 0.156 mg/kg)
  Peak Pulse: 156 bpm
[2]; [6]
  Time of TEAE of tachycardia following start of treatment administration: 11 min
  Time of peak heart rate following start of treatment administration: 16 min
[2]; Subject 0048, 0.24 mg/kg 15-minute infusion, 15 minutes following the peak heart rate
  Heart rate after decrease: 103 bpm
[2]; Subject 0048, Cohort 6, 0.24 mg/kg 15-minute infusion
  Peak Pulse: 109 bpm
[2]; [7]
  Time of TEAE of tachycardia following start of treatment administration: 16 min
  Time of peak heart rate following start of treatment administration: 20 min
[2]; Subject 0057, 0.32 mg/kg 30-minute infusion, 20 minutes following the peak heart rate
  Heart rate after decrease: 97 bpm
[2]; Subject 0057, Cohort 8, 0.32 mg/kg 30-minute infusion
  Peak Pulse: 110 bpm
[2]; cohorts 5 and 6, 15-minute infusions
  Time of peak in elevated heart rate following the start of treatment administration: 11 to 16 min
[2]; cohorts 7 and 8, 30-minute infusions
  Time of peak in elevated heart rate: approximately 30 minutes
[2]; [8]
  Incidence of tachycardia (adverse event): 10%
  Subjects reporting tachycardia (adverse event): 5 of 48
[1]
  Analgesic efficacy in the acute pain tail-flick assay: highest level of analgesic efficacy
[3]
  Analgesia compared with morphine: analgesia equivalent to that achieved by morphine
[4]
  Pain response in animal models of pain: effectively reduce the pain response
[5]; humans, sciatic pain
  Efficacy in proof-of-concept trial in sciatic pain: indicated efficacy
[5]; intravenous and oral formulations, several dose levels
  Safety when administered to humans: demonstrated the safety

From patent US20220387357A1, “Method of Dosing a Pain Therapeutic” (priority 2021, published 2022)
